# Where no end group is shown, it is not given here.
# Assays:
# IRAP (AT4 receptor) = biological target: T1, IRAP (AT4 receptor) (Homo sapiens, UniProt Q9UIQ6); experiment: ^125I-Nle^1 Ang IV binding to membranes of HEK 293 cells transfected with IRAP cDNA; details: IRAP cDNA transfected cells
# T1 construct: expressed in transfected cells; host or cells: HEK 293 cells (membranes)
# Description: The amount of radioligand bound to the membranes from HEK 293 cells transfected with IRAP cDNA was expressed as a percentage of radioligand bound to membranes from HEK 293 cells transfected with control plasmids.
# mice = experiment: Y maze spatial memory, normal mice; assay type: in vivo, mouse
# Description: The Y maze consists of three identical alleys (30 cm in length, 10 cm in width and 17 cm in height) with the three arms separated by 120° angles. To minimize stress, the maze is located in a sound-attenuated room under dim illumination, with the floor of the maze covered with sawdust. After each trial, the sawdust is mixed to eliminate olfactory cues. For spatial orientation, visual cues are placed on the walls of the testing room.
# The test consisted of two trials, separated by a time interval known as the intertrial interval. During the acquisition trial, the animals were placed at the distal end of one arm, their heads pointing away from the centre of the maze. The mice were allowed to visit only two accessible arms of the maze for 3 minutes. At the end of the acquisition trial, the mice were replaced in their cages for the intertrial interval. During the retention trial, the animals had access to all three arms for 5 minutes. The number and duration of time spent in the novel arm were documented.
# A shorter intertrial interval (2 hours) separating the acquisition phase from the retention phase enables amnesiant effects to be detected. Control mice still remember the location of the novel arm and will preferentially spend more time (45-50% of time) in that arm.
# Mice were surgically implanted with an infusion cannula in the dorsal third ventricle. […]
# rats = experiment: Passive avoidance, scopolamine-induced amnesia; assay type: in vivo, rat
# Description: Passive avoidance trials were then used to test the effect of modulation of AT4 receptor/IRAP activity on aversive conditioning behaviour in amnesic animals. The passive avoidance task involves aversive conditioning behaviour to measure facilitation of memory retention and retrieval. The testing was carried out in an apparatus that consisted of a light and a dark compartment separated by a guillotine door. The floor of the dark compartment contained an electrified grid.
# Rats were surgically implanted with chronic cannulae in the lateral ventricle. On conditioning day, the animals were habituated in the dark compartment for 5 min with the guillotine door closed. The animals were then placed in their home cages for 5 min before being placed in the light compartment with the guillotine door opened. The latency to enter the dark compartment with all four feet was documented. When the rats entered the dark compartment within 20 s of being placed in the light compartment, they were randomly divided into four treatment groups. The treatment groups were: • (1) saline followed by saline; • (2) saline followed by 1.0 nmole […] (SEQ ID NO:2); • (3) 70 nmole scopolamine followed by saline; and • (4) 70 nmole scopolamine followed by 1.0 nmole […] (SEQ ID NO:2).
# All of these were administered into the cerebral ventricles 30 min and 5 min before the acquisition trial. […]
# SK-N-MC cells = experiment: [^3H]-thymidine uptake in SK-N-MC cells; assay type: cell-based; details: Ang IV 10^−10-10^−7 M; LVVYPWTQRF 10^−10-10^−6 M
# Description: NG108-15 and SK-N-MC cells were cultured in DMEM supplemented with 10% heat-inactivated FCS, 2% HAT supplement, and 100 U/ml penicillin/streptomycin. Cells were routinely used between passages 20 and 30.
# Cells were plated at a density of 3×10^4 cells/well in 24 well Falcon plates that had been coated with 0.1 mg/ml poly-L-lysine hydrobromide. The cells were allowed to adhere overnight, and then serum deprived for 48 h before being treated with […] (SEQ ID NO:2) and/or Ang IV (10^−10 to 10^−6 M) for 24 h in medium with or without serum. Five hours before the end of the experiment 1 μCi of ^3H-thymidine was added to each well. At the completion of the incubation, cells were washed twice with 1 ml of PBS at 4° C., followed by 5% trichloroacetic acid at 4° C. for 30 min, which was aspirated before solubilizing the cells in 1 ml 0.25 M NaOH and 0.1% SDS for 30 min at 37° C. Samples were then collected into 5 ml of Ready Value scintillation fluid and ^3H measured in a liquid scintillation counter.
# AT4 receptor = details: Moeller et al, 1996; Zhang et al, 1999; cited from earlier work
# T1 sequence (Q9UIQ6 whole entry): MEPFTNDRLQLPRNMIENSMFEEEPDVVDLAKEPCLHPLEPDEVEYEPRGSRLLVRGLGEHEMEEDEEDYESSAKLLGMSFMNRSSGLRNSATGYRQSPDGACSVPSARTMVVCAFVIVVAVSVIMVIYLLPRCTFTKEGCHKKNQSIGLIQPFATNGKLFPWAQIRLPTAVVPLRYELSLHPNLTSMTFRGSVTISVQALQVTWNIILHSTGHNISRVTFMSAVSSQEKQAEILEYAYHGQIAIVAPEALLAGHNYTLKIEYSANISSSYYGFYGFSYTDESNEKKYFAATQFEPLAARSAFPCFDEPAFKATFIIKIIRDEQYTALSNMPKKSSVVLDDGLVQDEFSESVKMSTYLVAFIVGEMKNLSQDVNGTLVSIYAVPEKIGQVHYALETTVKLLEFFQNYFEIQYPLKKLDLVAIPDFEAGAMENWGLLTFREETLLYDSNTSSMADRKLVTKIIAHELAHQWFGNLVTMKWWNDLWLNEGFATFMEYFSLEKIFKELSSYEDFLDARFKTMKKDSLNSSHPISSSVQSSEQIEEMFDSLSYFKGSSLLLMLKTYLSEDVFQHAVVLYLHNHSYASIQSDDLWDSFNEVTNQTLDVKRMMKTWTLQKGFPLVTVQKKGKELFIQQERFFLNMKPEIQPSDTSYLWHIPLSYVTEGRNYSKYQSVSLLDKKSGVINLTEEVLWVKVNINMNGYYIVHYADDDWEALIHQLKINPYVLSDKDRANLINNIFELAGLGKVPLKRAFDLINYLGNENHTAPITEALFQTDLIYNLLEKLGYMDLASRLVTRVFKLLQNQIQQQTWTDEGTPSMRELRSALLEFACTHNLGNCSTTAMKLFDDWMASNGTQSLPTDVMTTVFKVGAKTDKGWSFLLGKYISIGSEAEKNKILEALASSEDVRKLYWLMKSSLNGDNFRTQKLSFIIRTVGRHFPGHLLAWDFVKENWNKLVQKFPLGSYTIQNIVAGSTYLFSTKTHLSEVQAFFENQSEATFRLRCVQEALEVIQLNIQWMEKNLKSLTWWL
sequence,measurement,setting,value
LVVYPWTQRF,binding of ^125I-Nle^1 angiotensin IV to IRAP sites inhibited by ligand,IRAP (AT4 receptor),competitively inhibited
same,time in novel arm versus control mice,mice; after 6 days of infusion at 0.3 pmol/h,indistinguishable from each other
same,time spent in the novel arm,"mice; after three days of infusion at 0.3 pmol/h, 6 h intertrial interval, control approximately 33%",50-60 % of time
same,latency to re-enter the dark compartment,rats; 1.0 nmole icv after 70 nmole scopolamine,not significantly different from controls
same,latency to re-enter the dark compartment,rats; 1.0 nmole icv alone (after saline),comparable to the scopolamine-treated group
same,increase of [^3H]-thymidine uptake,SK-N-MC cells,up to 81 % above control levels
same,affinity for AT4 receptor,AT4 receptor,nanomolar affinity
